Measurements as given in patent publication US11524966B1 (Valo Early Discovery, Inc., priority 2017, dated 2022).

target: T1, USP25 (USP25-His6, Boston Biochem E-546) (Homo sapiens, UniProt Q9UHP3); experiment: Ubiquitin-Rhodamine 110 Assay for USP25 Activity, Example A-2; assay type: biochemical; conditions: Ubiquitin-Rhodamine 110 assay, Example A-2; read-out: USP25 A-2 IC50 range
T1 construct: His6; purchased Boston Biochem E-546
T1 sequence (Q9UHP3 1-1055): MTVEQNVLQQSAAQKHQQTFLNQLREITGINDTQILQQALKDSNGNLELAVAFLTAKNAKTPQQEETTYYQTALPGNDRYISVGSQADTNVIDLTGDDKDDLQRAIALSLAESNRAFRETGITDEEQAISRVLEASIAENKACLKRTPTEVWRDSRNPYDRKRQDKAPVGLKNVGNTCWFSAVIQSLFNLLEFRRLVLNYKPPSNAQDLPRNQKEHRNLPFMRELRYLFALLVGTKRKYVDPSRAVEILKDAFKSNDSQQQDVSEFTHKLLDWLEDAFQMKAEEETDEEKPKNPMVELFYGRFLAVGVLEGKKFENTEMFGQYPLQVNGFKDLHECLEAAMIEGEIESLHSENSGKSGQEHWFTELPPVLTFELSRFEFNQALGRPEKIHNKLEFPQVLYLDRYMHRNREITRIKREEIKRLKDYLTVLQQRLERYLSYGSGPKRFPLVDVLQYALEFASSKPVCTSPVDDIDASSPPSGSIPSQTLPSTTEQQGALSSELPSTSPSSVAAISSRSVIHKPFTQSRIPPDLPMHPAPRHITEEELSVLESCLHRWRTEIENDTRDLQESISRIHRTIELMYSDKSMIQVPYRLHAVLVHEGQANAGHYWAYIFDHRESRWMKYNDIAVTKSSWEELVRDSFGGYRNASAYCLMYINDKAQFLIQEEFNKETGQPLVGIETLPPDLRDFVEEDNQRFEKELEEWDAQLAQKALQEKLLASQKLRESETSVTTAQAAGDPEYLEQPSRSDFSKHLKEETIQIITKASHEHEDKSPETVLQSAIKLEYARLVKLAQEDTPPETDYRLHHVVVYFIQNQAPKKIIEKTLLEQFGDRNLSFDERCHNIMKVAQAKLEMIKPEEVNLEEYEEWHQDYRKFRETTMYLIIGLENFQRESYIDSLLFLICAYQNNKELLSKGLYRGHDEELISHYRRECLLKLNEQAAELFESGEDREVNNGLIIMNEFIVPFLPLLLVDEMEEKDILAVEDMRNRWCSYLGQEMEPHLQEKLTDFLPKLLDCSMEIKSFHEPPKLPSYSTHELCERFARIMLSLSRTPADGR
Outline: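 Read-out: Rh110 fluorescence (ex 485, em 535 nm) after 45 min RT turnover of 25 nM Ub-Rh110 by 75 pM USP25-His6, quenched with 10 mM citric acid. Compounds at 25 μM–1.3 nM, preincubated 30 min with enzyme. IC50 from 4-parameter logistic fit.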

For CO[C@H]1CN(c2ccc3c(n2)CC[C@H](NC(=O)c2sc4nc(C)cnc4c2N)C3)C[C@@H]1NC(C)=O [Example 266, 7-amino-N-[(6S)-2-[(3S,4S)-3-acetamido-4-methoxypyrrolidin-1-yl]-5,6,7,8-tetrahydroquinolin-6-yl]-3-methylthieno[2,3-b]pyrazine-6-carboxamide], which IC50 is on record?
The IC50 was over 2000 nM.

With Cc1ccc2c(N)c(C(=O)N[C@H]3COc4cc(N5C[C@@H](N)[C@@]6(CCCO6)C5)ccc4C3)sc2n1 [Example 308, 3-amino-N-[(3R)-7-[(5R,9R)-9-amino-1-oxa-7-azaspiro[4.4]nonan-7-yl]-3,4-dihydro-2H-1-benzopyran-3-yl]-6-methylthieno[2,3-b]pyridine-2-carboxamide] as the molecule, how does the IC50 read?
Its IC50 is 200 to 2000 nM.

COC[C@@H]1CN(c2ccc3c(n2)CC[C@H](NC(=O)c2sc4nc(C)cc(C)c4c2N)C3)C[C@@H]1N [Example 296, 3-amino-N-[(6S)-2-[(3R,4R)-3-amino-4-(methoxymethyl)pyrrolidin-1-yl]-5,6,7,8-tetrahydroquinolin-6-yl]-4,6-dimethylthieno[2,3-b]pyridine-2-carboxamide-] was tested. Which IC50 did it give?
The IC50 was over 2000 nM.

CO[C@H]1CN(c2ccc3c(n2)CC[C@H](NC(=O)c2sc4nc(C)cc(C)c4c2N)C3)C[C@@H]1NC(C)=O [Example 293, 3-amino-N-[(6S)-2-[(3S,4S)-3-acetamido-4-methoxypyrrolidin-1-yl]-5,6,7,8-tetrahydroquinolin-6-yl]-4,6-dimethylthieno[2,3-b]pyridine-2-carboxamide] was tested. Which IC50 did it give?
Its IC50 is over 2000 nM.

For Cc1ccc2c(N)c(C(=O)N[C@H]3COc4cc(N5CC[C@@H](N)C5)ccc4C3)sc2n1 [Example 288, 3-amino-N-[(3R)-7-[(3R)-3-aminopyrrolidin-1-yl]-3,4-dihydro-2H-1-benzopyran-3-yl]-6-methylthieno[2,3-b]pyridine-2-carboxamide], which IC50 is on record?
Its IC50 is 200 to 2000 nM.

With COC[C@H]1CN(c2ccc3c(n2)CC[C@H](NC(=O)c2sc4nc(C)ccc4c2N)C3)C[C@@H]1N [Example 327, 3-amino-N-[(6S)-2-[(3R,4S)-3-amino-4-(methoxymethyl)pyrrolidin-1-yl]-5,6,7,8-tetrahydroquinolin-6-yl]-6-methylthieno[2,3-b]pyridine-2-carboxamide] as the molecule, how does the IC50 read?
Its IC50 is 200 to 2000 nM.

With Cc1ccc2c(N)c(C(=O)N[C@H]3COc4cc(N5C[C@@H](F)[C@@H](N)C5)ccc4C3)sc2n1 (single isomer, unassigned) [Example 3-6] as the molecule, how does the IC50 read?
The IC50 was 200 to 2000 nM.

For CO[C@@]1(C)CN(c2ccc3c(n2)OC[C@H](NC(=O)c2sc4nc(C)ccc4c2N)C3)C[C@@H]1N [Example 325, 3-amino-N-[(3R)-7-[(3S,4S)-4-amino-3-methoxy-3-methylpyrrolidin-1-yl]-2H,3H,4H-pyrano[2,3-b]pyridin-3-yl]-6-methylthieno[2,3-b]pyridine-2-carboxamide], which IC50 is on record?
The IC50 was over 2000 nM.

How did the IC50 turn out when CO[C@@]12CNC[C@@H]1CN(c1ccc3c(c1)OC[C@H](NC(=O)c1sc4nc(C)ccc4c1N)C3)C2 [Example 292, N-[(3R)-7-[(3aR,6aR)-3a-methoxy-octahydropyrrolo[3,4-c]pyrrol-2-yl]-3,4-dihydro-2H-1-benzopyran-3-yl]-3-amino-6-methylthieno[2,3-b]pyridine-2-carboxamide] was run?
Its IC50 is 200 to 2000 nM.

How did the IC50 turn out when COC[C@H]1CN(c2nc3c(cc2F)C[C@H](NC(=O)c2sc4nc(C)ccc4c2N)CC3)C[C@H]1N (single isomer, unassigned) [Example 303] was run?
Its IC50 is over 2000 nM.

How did the IC50 turn out when CO[C@H]1[C@H](N)CN(c2ccc3c(c2)OC[C@H](NC(=O)c2sc4nc(C)ccc4c2N)C3)[C@@H]1C [Example 284, 3-amino-N-[(3R)-7-[(2R,3S,4R)-4-amino-3-methoxy-2-methylpyrrolidin-1-yl]-3,4-dihydro-2H-1-benzopyran-3-yl]-6-methylthieno[2,3-b]pyridine-2-carboxamide] was run?
Its IC50 is 50 to 200 nM.

Which IC50 does the source give for CO[C@@H]1CCN(c2ccc3c(c2)OC[C@H](NC(=O)c2sc4nc(C)cc(C)c4c2N)C3)C[C@H]1N [Example 318, 3-amino-N-[(3R)-7-[(3R,4R)-3-amino-4-methoxypiperidin-1-yl]-3,4-dihydro-2H-1-benzopyran-3-yl]-4,6-dimethylthieno[2,3-b]pyridine-2-carboxamide] here?
Its IC50 is 200 to 2000 nM.

How did the IC50 turn out when Cc1ccc2c(N)c(C(=O)N[C@H]3CCc4nc(N5C[C@H]6NCCC(F)(F)[C@H]6C5)ccc4C3)sc2n1 [Example 329, N-[(6S)-2-[(4aS,7aS)-4,4-difluoro-octahydro-1H-pyrrolo[3,4-b]pyridin-6-yl]-5,6,7,8-tetrahydroquinolin-6-yl]-3-amino-6-methylthieno[2,3-b]pyridine-2-carboxamide] was run?
The IC50 was 200 to 2000 nM.

With Cc1ccc2c(N)c(C(=O)N[C@H]3COc4cc(N5C[C@H](N)[C@@]6(CCCO6)C5)ccc4C3)sc2n1 [Example 310, 3-amino-N-[(3R)-7-[(5R,9S)-9-amino-1-oxa-7-azaspiro[4.4]nonan-7-yl]-3,4-dihydro-2H-1-benzopyran-3-yl]-6-methylthieno[2,3-b]pyridine-2-carboxamide] as the molecule, how does the IC50 read?
The IC50 was 200 to 2000 nM.

For CO[C@H]1CN(c2ccc3c(c2)OC[C@H](NC(=O)c2sc4nc(C)ccc4c2N)C3)[C@@H](C)[C@@H]1N [Example 333, 3-amino-N-[(3R)-7-[(2S,3S,4S)-3-amino-4-methoxy-2-methylpyrrolidin-1-yl]-3,4-dihydro-2H-1-benzopyran-3-yl]-6-methylthieno[2,3-b]pyridine-2-carboxamide], which IC50 is on record?
The IC50 was 50 to 200 nM.

For CO[C@@H]1CN(c2ccc3c(c2)OC[C@H](NC(=O)c2sc4nc(C)ccc4c2N)C3)[C@H](C)[C@H]1N [Example 335, 3-amino-N-[(3R)-7-[(2R,3R,4R)-3-amino-4-methoxy-2-methylpyrrolidin-1-yl]-3,4-dihydro-2H-1-benzopyran-3-yl]-6-methylthieno[2,3-b]pyridine-2-carboxamide], which IC50 is on record?
The IC50 was 200 to 2000 nM.

With Cc1ccc2c(N)c(C(=O)N[C@H]3CCc4nc(N5C[C@@H]6NCCC(F)(F)[C@@H]6C5)ccc4C3)sc2n1 [Example 330, N-[(6S)-2-[(4aR,7aR)-4,4-difluoro-octahydro-1H-pyrrolo[3,4-b]pyridin-6-yl]-5,6,7,8-tetrahydroquinolin-6-yl]-3-amino-6-methylthieno[2,3-b]pyridine-2-carboxamide] as the molecule, how does the IC50 read?
The IC50 was over 2000 nM.

Which IC50 does the source give for Cc1ccc2c(N)c(C(=O)N[C@H]3COc4cc(N5C[C@@H](N)[C@]6(CCCO6)C5)ccc4C3)sc2n1 [Example 309, 3-amino-N-[(3R)-7-[(5S,9R)-9-amino-1-oxa-7-azaspiro[4.4]nonan-7-yl]-3,4-dihydro-2H-1-benzopyran-3-yl]-6-methylthieno[2,3-b]pyridine-2-carboxamide] here?
Its IC50 is 50 to 200 nM.

Cc1ccc2c(N)c(C(=O)N[C@H]3COc4cc(N5C[C@H](N)[C@]6(CCO6)C5)ccc4C3)sc2n1 [Example 340, 3-amino-N-[(3R)-7-[(4S,8S)-8-amino-1-oxa-6-azaspiro[3.4]octan-6-yl]-3,4-dihydro-2H-1-benzopyran-3-yl]-6-methylthieno[2,3-b]pyridine-2-carboxamide] was tested. Which IC50 did it give?
The IC50 was 200 to 2000 nM.

How did the IC50 turn out when COC[C@H]1CN(c2cc(F)c3c(c2F)OC[C@H](NC(=O)c2sc4nc(C)cc(C)c4c2N)C3)C[C@H]1N [Example 278, 3-amino-N-[(3R)-7-[(3S,4S)-3-amino-4-(methoxymethyl)pyrrolidin-1-yl]-5,8-difluoro-3,4-dihydro-2H-1-benzopyran-3-yl]-4,6-dimethylthieno[2,3-b]pyridine-2-carboxamide] was run?
The IC50 was 50 to 200 nM.
